Like-named read-outs stand apart in the source and are kept apart here.
Experiments:
[1] = cited from earlier work; for Vapor Pressure of pure solvent: 20° C., Table I; for Vapor Pressure at 20° C.: Example 4
[2] = Henry's Law constant H of solvent in water; format: physicochemical; conditions: for Henry's Law constant, H: Table I; for Value of H: Table II
Procedure: In a first or single stage, the incoming gas contains no solvent, yo is 0 and Em = y/y*. y is determined by analyzing a sample of the off-gas and y* can be calculated from the total vapor pressure P, the mole fraction (x) of the solvent in the liquid leaving the stage and H, the Henry's Law constant. That is, y*P (the partial pressure of the solvent) is equal to Hx, or y* = Hx/P.
For an aqueous solution of a sparingly soluble chlorinated hydrocarbon (for which Henry's law holds reasonably well over the full range of solubility up to saturation), H can be determined from the solvent solubility (c) in water and the vapor pressure (po) of the pure solvent, at a particular temperature; i.e., H = po /C. solubilities, vapor pressures and H values, at 20° C., are given below for three chlorinated hydrocarbon solvents.
The effect on H of operating at temperatures somewhat above or below […] is indicated in the following tabulation: […]

[3] = cited from earlier work
[4] = Air stripping of solvent from water (no fibers), time to strip 90% (Example 4); format: physicochemical; conditions: 200 ml water, 5 g solvent, air stripped as in Example 2 (20° C., 2 cubic feet per minute)
Procedure: In a single tray apparatus similar to that in Example 1, air at 20° C. was passed at a rate of 2 cubic feet per minute through 200 ml. batches of various consistency aqueous Kraft pulps containing initially 1% by volume (2.0 ml, or […]) of dispersed perchloroethylene, C2 Cl4, which is very sparingly soluble in water (150 ppm). After 3 minutes, the residual weight of C2 Cl4 found was:
200 ml. batches of water (no fibers) containing 5 g. of solvent were stripped with air as in Example 2. The time required to strip 90% of the solvent was measured: […]

[5] = Dissolved solvent found in 0.5% Kraft pulp prepared with solvent-saturated water (Example 5); format: physicochemical; conditions: 0.5% consistency Kraft pulp, water previously saturated with perchloroethylene
Procedure: A 0.5% consistency Kraft pulp suspension was prepared with water previously saturated with perchloroethylene.

| SMILES | Vapor Pressure of pure solvent [1] [mm Hg] | Vapor Pressure at 20° C. [1] [mm Hg] | Henry's Law constant, H ([2]; 20° C.) [mm Hg/ppm] | Solubility in water ([3]; 20° C., Table I) | Time Required to strip out 90% [4] [s] | Value of H ([2]; 15° C.) [mm Hg/ppm] | Value of H ([2]; 20° C.) [mm Hg/ppm] | Value of H ([2]; 25° C.) [mm Hg/ppm] | dissolved C2 Cl4 content of suspension [5] [ppm] | Solubility in water ([3]; Example 2, very sparingly soluble in water) [ppm] |
| --- | --- | --- | --- | --- | --- | --- | --- | --- | --- | --- |
| CC(Cl)(Cl)Cl [1,1,1-Trichloroethane] | 100 | 100 | 0.1429 | 700 ppm | 32 | – | – | – | – | – |
| ClC(Cl)=C(Cl)Cl [Perchloroethylene, perchloroethylene] | 14.7 | 15 | 0.1000 | 147 ppm | 125 | 0.0760 | 0.1000 | 0.1267 | 176 | 150 |
| ClCCl [Methylene Chlorine] | – | 340 | 0.0241 | 13,900 ppm | 9 | 0.0183 | 0.0241 | 0.0321 | – | – |

— patent publication US4048007A, “Method of removing solvent residues from aqueous paper pulps” (The Dow Chemical Company, priority 1976, dated 1977)
